Publication PMC8619914, “Development of Novel Peptides for the Antimicrobial Combination Therapy against Carbapenem-Resistant Acinetobacter baumannii Infection” (Pharmaceutics, 2021)
Values after ≈ are worked out from the molar mass of the structure shown. Where two headings read alike, the source gives them in different places. Where no end group is shown, it is not given here.

Columns and labels:
CRAB C1 biofilm = test: Biofilm inhibition, crystal violet; type: cell-based, carbapenem-resistant Acinetobacter baumannii; conditions: Acinetobacter baumannii; 32 μg·mL^−1, CRAB C1, compared to the control; read-out: percentage of biofilm inhibition
Protocol: CRAB C1 cells (2 × 10^5 CFU·mL^−^1) were incubated with PapMA-3 and antibiotics in a tissue-culture well plate in MH medium containing 0.2% glucose for 16 h at 37 °C. The cells were stained with 0.1% (w/v) crystal violet in 0.25% (v/v) acetic acid for 1 h at room temperature; the dye complex was dissolved with ethanol. Absorbance at 595 nm was measured using SpectraMAX microplate reader (Molecular Devices) to quantify the biofilm formation.
Biofilms were quantified by staining with crystal violet. (A) Absorbance of crystal violet-stained biofilms with treatment of PapMA-3 and antibiotics at a concentration range of 32 to 512 μg·mL^−1, assessed at 595 nm. […] CRAB C1 without peptides or antibiotics served as the control (red). Statistical analysis was performed using two-way ANOVA with Dunnett’s comparison test. The values are expressed as the mean ± SEM of three independent experiments and are statistically significant at ** p < 0.01 and *** p < 0.001. ns, not significant.

[1] = tested on: Gram-negative bacterial strains; test: organism not typed
Description: (§1) The Gram-negative bacterial strain Escherichia coli (KCTC 1682) and Gram-positive bacterial strain Staphylococcus aureus (KCTC 1621) were purchased from the Korean Collection for Type Cultures (Jeongeup, Korea). Acinetobacter baumannii (KCCM 40203) were purchased from Korea Culture Center of Microorganisms (Seoul, Korea). Additionally, five carbapenem-resistant Acinetobacter baumanii C1–C5 (CRAB C1–C5), which have the OXA-23 gene with carbapenem-resistance were collected from the patients with CRAB bacteremia, who presented symptoms and signs of infection at Korea University Anam Hospital (Seoul, Korea) (IRB registration no. 2020AN0157). The minimum inhibitory concentrations (MIC) of the AMP and antibiotics against the various bacterial strains were assessed using the serial dilution method on Muller–Hinton (MH) media, as described previously. […] Absorbance at 600 nm was measured using a SpectraMAX microplate reader (Molecular Devices, San Jose, CA, USA).
Geometric means (GM) were calculated to compare the relative antimicrobial activities of the analogs against Gram-negative bacteria. […] Next, the antibacterial mechanisms of peptides were investigated.

CRAB C1 [2] = test: microbe, parasite or virus in culture; conditions: 16 h
Protocol: (§2) The synergistic effects of AMPs and antibiotics were measured using checkerboard assays. Serial dilutions of PapMA-3 and antibiotics were performed from 1 to […] of the MIC. Samples were then cross-mixed and cultured in MH medium with 2 × 10^5 CFU·ml^−^1 bacteria. Results were recorded after 16 h of incubation at 37 °C. The fractional inhibitory concentration index (FICI) was calculated according to the European Committee on Antimicrobial Susceptibility (EUCAST).
(§3) The ability of PapMA-3 to facilitate these antibiotics in penetrating the bacterial membranes of Gram-negative bacteria was investigated.

CRAB C5 [3] = test: microbe, parasite or virus in culture; conditions: 16 h
Protocol: as §2, §3

CRAB C3 [4] = test: microbe, parasite or virus in culture; conditions: 16 h
Protocol: as §2, §3

CRAB C2 [5] = test: microbe, parasite or virus in culture; conditions: 16 h
Protocol: as §2, §3

CRAB C4 [6] = test: microbe, parasite or virus in culture; conditions: 16 h
Protocol: as §2, §3

CRAB C1 [7] = test: microbe, parasite or virus in culture; conditions: 16 h; remark: listed apart in the source
Description: as §1
(§4) Measurement of the minimum inhibitory concentrations (MIC) was conducted to determine the effect of the hydrophobicity of each antimicrobial peptide on its antimicrobial activity. MIC was defined as the minimum concentration that killed more than 99% of bacteria; it was measured against two standard Gram-negative bacteria (E. coli and A. baumanii), five clinically isolated CRAB (C1–C5), and one Gram-positive bacteria (S. aureus).

CRAB C5 [8] = test: microbe, parasite or virus in culture; conditions: 16 h; remark: listed apart in the source
Description: as §1, §4

CRAB C3 [9] = test: microbe, parasite or virus in culture; conditions: 16 h; remark: listed apart in the source
Description: as §1, §4

CRAB C2 [10] = test: microbe, parasite or virus in culture; conditions: 16 h; remark: listed apart in the source
Description: as §1, §4

[11] = tested on: Escherichia coli (KCTC 1682); test: microbe, parasite or virus in culture
Description: as §1, §4

CRAB C4 [12] = test: microbe, parasite or virus in culture; conditions: 16 h; remark: listed apart in the source
Description: as §1, §4

[13] = tested on: Acinetobacter baumannii (KCCM 40203); test: microbe, parasite or virus in culture
Description: as §1, §4

[14] = tested on: Staphylococcus aureus (KCTC 1621); test: microbe, parasite or virus in culture
Description: as §1, §4

CRAB C1 [15] = test: FE-SEM of membrane damage; type: cell-based, carbapenem-resistant Acinetobacter baumannii; conditions: erythromycin 128 μg·mL^−1 alone, 1 h and 2 h
Protocol: The cells were washed using PBS, fixed in 1% osmium tetroxide for 1 h, and dehydrated using a graded ethanol series. After dehydration, ethanol contents in the sample were replaced with varying ratio (2:1, 1:1, 1:2, 0:1 v/v) of ethanol–isoamyl acetate mixture. The cells were fixed on a glass slide with hexamethyldisilzane, dried under reduced pressure, and platinum-coated; they were visualized using an FE-SEM (SU8020; Hitachi, Tokyo, Japan).
Figure 7 FE-SEM images of CRAB C1 treated with PapMA-3. (A) Only CRAB C1. […] (F–I) same experiments after incubation for 1 h, respectively.

CRAB C1 [16] = conditions: 50% human serum in MH medium, 16 h, 37 °C; measure of serum stability
Protocol: Antibacterial activity of PapMA-3 in combination with imipenem was measured against CRAB C1 in the presence of 50% human serum. The treated cells were incubated for 16 h at 37 °C, and the absorbance at 600 nm was measured using a SpectraMAX microplate reader (Molecular Devices).

HEK-293 cells = test: Cytotoxicity, WST-8 Cell Proliferation Assay; type: cell-based, human; conditions: 64 μg·mL^−1, 24 h, WST-8
Protocol: (§5) Human embryonic kidney (HEK)-293 cells, purchased from Korean cell line bank (Seoul, Korea) were cultured in Dulbecco’s modified Eagle’s medium (DMEM) (Welgene, Gyeong-san, Korea) with 10% fetal bovine serum, 1% penicillin-streptomycin at 37 °C in a humidified 5% CO2 incubator as described previously. The cytotoxicity of the six PapMA peptides and melittin was determined using WST-8 Cell Proliferation Assay Kit (Biomax Co, Ltd., Seoul, Korea), according to the manufacturer’s instructions. […] The absorbance was measured at 450 nm using a SpectraMAX microplate reader (Molecular Devices).
Figure 4 Cytotoxicity of PapMA analogs. (A) Cytotoxicity of PapMA and its analogs against HEK-293 cell. […] (B) Hemolysis activity of PapMA analogs against sRBC. The peptide was serially diluted and incubated with sRBC for 1 h with melittin as a control. Statistical analysis was performed using two-way ANOVA with Dunnett’s comparison test. The values are expressed as the mean ± SEM of three independent experiments and are statistically significant at ** p < 0.01; and *** p < 0.001. ns, not significant.

HaCaT cells = test: Cytotoxicity, WST-8 Cell Proliferation Assay; type: cell-based, human; conditions: 32 μg·mL^−1, 24 h and 48 h, compared to blank control
Protocol: as §5
Figure 10 Cytotoxicity of PapMA-3 (A) Cytotoxicity of PapMA-3 against HEK-293 cells at 24 h and 48 h. (B) Cytotoxicity of PapMA-3 against HaCaT cell at 24 h and 48 h. Statistical analysis was performed using two-way ANOVA with Dunnett’s comparison test. The values are expressed as the mean ± SEM of three independent experiments and are statistically significant at * p < 0.05; *** p < 0.001; ns, not significant.

[17] = checkerboard table, single agent, MH medium, 37 °C
[18] = MH media, 2 × 10^5 CFU·mL^−1, 37 °C, absorbance 600 nm

Compound: CC[C@H]1OC(=O)[C@H](C)[C@@H](O[C@H]2C[C@@](C)(OC)[C@@H](O)[C@H](C)O2)[C@H](C)[C@@H](O[C@@H]2O[C@H](C)C[C@H](N(C)C)[C@H]2O)[C@](C)(O)C[C@@H](C)C(=O)[C@H](C)[C@@H](O)[C@]1(C)O [Erythromycin]
- inhibition at 32 µg/mL (CRAB C1 biofilm): 37.7%
- MIC ([1]; read-out: GM (mean MIC of Gram-negative bacterial strains)): 592 µg/mL
- MIC (CRAB C1 [2]; Acinetobacter baumannii, read-out: MIC alone, CRAB C1): > 512 µg/mL
- MIC (CRAB C5 [3]; Acinetobacter baumannii, read-out: MIC alone, CRAB C5): > 512 µg/mL
- MIC (CRAB C3 [4]; Acinetobacter baumannii, read-out: MIC alone, CRAB C3): 512 µg/mL
- MIC (CRAB C2 [5]; Acinetobacter baumannii, read-out: MIC alone, CRAB C2): 512 µg/mL
- MIC (CRAB C4 [6]; Acinetobacter baumannii, read-out: MIC alone, CRAB C4): > 512 µg/mL
- MIC (CRAB C1 [7]; Acinetobacter baumannii, read-out: Minimum Inhibitory Concentration, CRAB C1): > 512 µg/mL
- MIC (CRAB C5 [8]; Acinetobacter baumannii, read-out: Minimum Inhibitory Concentration, CRAB C5): > 512 µg/mL
- MIC (CRAB C3 [9]; Acinetobacter baumannii, read-out: Minimum Inhibitory Concentration, CRAB C3): 512 µg/mL (≈ 698 µM)
- MIC (CRAB C2 [10]; Acinetobacter baumannii, read-out: Minimum Inhibitory Concentration, CRAB C2): 512 µg/mL (≈ 698 µM)
- MIC ([11]; Escherichia coli, KCTC1682, 16 h, read-out: Minimum Inhibitory Concentration, E. coli): 16 µg/mL (≈ 21.8 µM)
- MIC (CRAB C4 [12]; Acinetobacter baumannii, read-out: Minimum Inhibitory Concentration, CRAB C4): > 512 µg/mL
- MIC ([13]; Acinetobacter baumannii, KCCM40203, 16 h, read-out: Minimum Inhibitory Concentration, A. baumanii): 32 µg/mL (≈ 43.6 µM)
- MIC ([14]; Staphylococcus aureus, KCTC1621, 16 h, read-out: Minimum Inhibitory Concentration, S.aureus): 0.25 µg/mL (≈ 0.341 µM)
- membrane integrity of CRAB C1 (FE-SEM) (CRAB C1 [15]): not altered

Compound: RWKIFKKIPKFLHSAKKW-NH2 [PapMA-3]
- Minimum Inhibitory Concentration, CRAB C1, + Serum (50%) (CRAB C1 [16]): 64 µg/mL
- GM (mean MIC of Gram-negative bacterial strains) ([1]; seven Gram-negative strains, 256 assumed for MIC > 128 and 1024 for MIC > 512 μg·mL^−1): 18 µg/mL
- MIC alone, CRAB C1 (CRAB C1 [2]; [17]): 16 µg/mL
- MIC alone, CRAB C5 (CRAB C5 [3]; [17]): 16 µg/mL
- MIC alone, CRAB C3 (CRAB C3 [4]; [17]): 16 µg/mL
- MIC alone, CRAB C2 (CRAB C2 [5]; [17]): 16 µg/mL
- MIC alone, CRAB C4 (CRAB C4 [6]; [17]): 32 µg/mL
- survival rate of HEK-293 cells (HEK-293 cells): 100%
- cell proliferation and viability, HaCaT (HaCaT cells): remained unaltered
- Minimum Inhibitory Concentration, CRAB C1, MH Media (CRAB C1 [7]; MH media without serum, 37 °C): 16 µg/mL
- Minimum Inhibitory Concentration, CRAB C1 (CRAB C1 [7]; [18]): 16 µg/mL
- Minimum Inhibitory Concentration, CRAB C5 (CRAB C5 [8]; [18]): 16 µg/mL
- Minimum Inhibitory Concentration, CRAB C3 (CRAB C3 [9]; [18]): 16 µg/mL
- Minimum Inhibitory Concentration, CRAB C2 (CRAB C2 [10]; [18]): 16 µg/mL
- Minimum Inhibitory Concentration, E. coli, MH Media ([11]; KCTC 1682, 16 h): 16 µg/mL
- Minimum Inhibitory Concentration, E. coli ([11]; MH media, 2 × 10^5 CFU·mL^−1, 37 °C, 16 h, absorbance 600 nm, MIC kills more than 99% of bacteria): 16 µg/mL
- Minimum Inhibitory Concentration, CRAB C4 (CRAB C4 [12]; [18]): 32 µg/mL
- Minimum Inhibitory Concentration, A. baumanii ([13]; KCCM 40203, 16 h): 16 µg/mL
- Minimum Inhibitory Concentration, A. baumannii, MH Media ([13]; KCCM 40203, 16 h): 16 µg/mL
- Minimum Inhibitory Concentration, S.aureus ([14]; KCTC 1621, 16 h): 32 µg/mL
